Source: patent US8846949B2, “Pyrrolopyrazoles as N-type calcium channel blockers” (Janssen Pharmaceutica NV, priority 2012, dated 2014)
Read-outs that look alike come from different tables or passages of the source.

Experiments:
[1] = biological target: T1, N-type calcium channel α1B (Cav2.2), β3 and α2δ subunits (Homo sapiens, UniProt Q00975); test: Functional assay, antagonism of N-type calcium channel (FDSS calcium mobilization response to KCl depolarization); type: cell-based; conditions: for IC50: HEK stable cell line, 50 mM KCl depolarization, six-point concentration-response; for inhibition at 0.33 µM: 0.33 μM compound, FDSS, 50 mM KCl
T1 construct: expressed in transfected cells
In short: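 HEK cells stably co-expressing α1B (Cav2.2), β3 and α2δ subunits were loaded with calcium dye, preincubated with compound for 5 min, then depolarized with 50 mM KCl and read for 3 min by FDSS fluorescence. IC50 from six-point curves, normalized to KCl maximum and buffer minimum.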

N-type calcium channel = biological target: T2, N-type calcium channel (Homo sapiens, UniProt Q00975); test: Automated electrophysiology assay (QPatch-HT whole-cell patch clamp); type: cell-based
T2 construct: expressed in transfected cells
Method: Cells were grown in T175 flasks to 50%-90% confluence. At the time of use, cells were enzymatically treated with Detachin (Genlantis, San Diego, Calif. USA), centrifuged, rinsed, and resuspended in 293 SFM II media (Life Technologies, Grand Island, N.Y. U.S.A.) supplemented with 25 mM HEPES (Sigma-Aldrich, St. Louis, Mo. U.S.A.) to a concentration of 2-3×10^6 cells/mL. Cells were added to the automated cell preparation station on the QPatch-HT (Sophion Biosciences, North Brunswick, N.J. U.S.A.), and following a 10- to 30-min recovery period with gentle stirring, the assay protocol was initiated. During the automated cell preparation, cells were collected, centrifuged and resuspended in an extracellular (EC) solution containing 132 mM NaCl, 1.8 mM CaCl2, 5.4 mM KCl, 0.8 mM MgCl2, 10 mM glucose, and 10 mM HEPES (pH=7.4), adjusted with sucrose to approximately 315 m0sm. The QPlate was primed with an intracellular solution containing 135 mM CsCl, 10 mM EGTA, 4 MgATP, 0.3 NaGTP, and 20 mM HEPES (pH=7.2), adjusted to approximately 290 m0sm with deionized water and the EC solution. Cells were added to the prepared QPlate wells by robotic pipettes of the QPatch-HT.
For cells determined to be in stable whole-cell patch clamp, the EC solution was replaced with a barium (Ba)/triethylammonium (TEA) solution containing 140 mM TEA-Cl, 10 mM BaCl2, 0.8 mM MgCl2, 10 mM glucose and 10 mM HEPES (pH=7.4). High (40 mM) BaCl2 concentrations were made with adjustments to TEA-C1 (90 mM) to maintain the osmolarity. From a resting potential of −80 mV, a train of depolarizing pulses (15 pulses at 5 Hz, +20 mV) was delivered to the cell once every 30 sec for eight trains (4 min total), and the resulting currents were measured during a control period (no compound). This protocol was repeated for each subsequent addition of control buffer with or without compound (three periods total, each with four trains). The current generated in the 1st and 15th pulses of the last train of each period in the presence of each drug concentration was normalized to the current generated during the control period at the respective pulses (representing low- and high-frequency stimulation, respectively). Data from both the second and third drug application periods were analyzed for each cell. A final addition of Ba/TEA solution containing 60-100 μM CdCl2 was made to block all N-type current and to “zero” the currents for each cell. All buffer/compound additions were made using a “spitting” feature of the QPatch-HT, which added three repetitions of 5 μL solution at the beginning of each recording period.
To examine closed-state inactivation, cells were subjected to a channel-activating 50-msec depolarizing step pulse from −80 to +10 mV, followed by a 5-sec nonactivating step to voltages ranging from −130 to −60 mV in 10 mV increments and then a 50-ms step from −80 to +10 mV to assess the remaining current. Currents from the activating voltage pulse were normalized to the peak value of the test pulse following the −130 mV step and fit to a Boltzman equation to obtain the V1/2. Roscovitine (Sigma-Aldrich) was prepared as a 100 mM stock in dimethyl sulfoxide and diluted to the indicated working concentrations. […]. Compounds of Formula (I) were diluted first into dimethyl sulfoxide and then into 10% pluronic F-127 in water (Life Technologies), sonicated for 1 min and diluted into EC buffer. Vehicle controls were run in parallel in all experiments.
Unless otherwise indicated, statistics for comparing among electrophysiological results utilized a one-way analysis of variance with Fisher's least squares determination test for pair-wise comparison.

[2] = high frequency (15th pulse of train, 5 Hz), read-out: QPatch at High Frequency % Inhibition
[3] = low frequency (1st pulse of train), read-out: QPatch at Low Frequency % Inhibition

T2 sequence (Q00975 whole entry): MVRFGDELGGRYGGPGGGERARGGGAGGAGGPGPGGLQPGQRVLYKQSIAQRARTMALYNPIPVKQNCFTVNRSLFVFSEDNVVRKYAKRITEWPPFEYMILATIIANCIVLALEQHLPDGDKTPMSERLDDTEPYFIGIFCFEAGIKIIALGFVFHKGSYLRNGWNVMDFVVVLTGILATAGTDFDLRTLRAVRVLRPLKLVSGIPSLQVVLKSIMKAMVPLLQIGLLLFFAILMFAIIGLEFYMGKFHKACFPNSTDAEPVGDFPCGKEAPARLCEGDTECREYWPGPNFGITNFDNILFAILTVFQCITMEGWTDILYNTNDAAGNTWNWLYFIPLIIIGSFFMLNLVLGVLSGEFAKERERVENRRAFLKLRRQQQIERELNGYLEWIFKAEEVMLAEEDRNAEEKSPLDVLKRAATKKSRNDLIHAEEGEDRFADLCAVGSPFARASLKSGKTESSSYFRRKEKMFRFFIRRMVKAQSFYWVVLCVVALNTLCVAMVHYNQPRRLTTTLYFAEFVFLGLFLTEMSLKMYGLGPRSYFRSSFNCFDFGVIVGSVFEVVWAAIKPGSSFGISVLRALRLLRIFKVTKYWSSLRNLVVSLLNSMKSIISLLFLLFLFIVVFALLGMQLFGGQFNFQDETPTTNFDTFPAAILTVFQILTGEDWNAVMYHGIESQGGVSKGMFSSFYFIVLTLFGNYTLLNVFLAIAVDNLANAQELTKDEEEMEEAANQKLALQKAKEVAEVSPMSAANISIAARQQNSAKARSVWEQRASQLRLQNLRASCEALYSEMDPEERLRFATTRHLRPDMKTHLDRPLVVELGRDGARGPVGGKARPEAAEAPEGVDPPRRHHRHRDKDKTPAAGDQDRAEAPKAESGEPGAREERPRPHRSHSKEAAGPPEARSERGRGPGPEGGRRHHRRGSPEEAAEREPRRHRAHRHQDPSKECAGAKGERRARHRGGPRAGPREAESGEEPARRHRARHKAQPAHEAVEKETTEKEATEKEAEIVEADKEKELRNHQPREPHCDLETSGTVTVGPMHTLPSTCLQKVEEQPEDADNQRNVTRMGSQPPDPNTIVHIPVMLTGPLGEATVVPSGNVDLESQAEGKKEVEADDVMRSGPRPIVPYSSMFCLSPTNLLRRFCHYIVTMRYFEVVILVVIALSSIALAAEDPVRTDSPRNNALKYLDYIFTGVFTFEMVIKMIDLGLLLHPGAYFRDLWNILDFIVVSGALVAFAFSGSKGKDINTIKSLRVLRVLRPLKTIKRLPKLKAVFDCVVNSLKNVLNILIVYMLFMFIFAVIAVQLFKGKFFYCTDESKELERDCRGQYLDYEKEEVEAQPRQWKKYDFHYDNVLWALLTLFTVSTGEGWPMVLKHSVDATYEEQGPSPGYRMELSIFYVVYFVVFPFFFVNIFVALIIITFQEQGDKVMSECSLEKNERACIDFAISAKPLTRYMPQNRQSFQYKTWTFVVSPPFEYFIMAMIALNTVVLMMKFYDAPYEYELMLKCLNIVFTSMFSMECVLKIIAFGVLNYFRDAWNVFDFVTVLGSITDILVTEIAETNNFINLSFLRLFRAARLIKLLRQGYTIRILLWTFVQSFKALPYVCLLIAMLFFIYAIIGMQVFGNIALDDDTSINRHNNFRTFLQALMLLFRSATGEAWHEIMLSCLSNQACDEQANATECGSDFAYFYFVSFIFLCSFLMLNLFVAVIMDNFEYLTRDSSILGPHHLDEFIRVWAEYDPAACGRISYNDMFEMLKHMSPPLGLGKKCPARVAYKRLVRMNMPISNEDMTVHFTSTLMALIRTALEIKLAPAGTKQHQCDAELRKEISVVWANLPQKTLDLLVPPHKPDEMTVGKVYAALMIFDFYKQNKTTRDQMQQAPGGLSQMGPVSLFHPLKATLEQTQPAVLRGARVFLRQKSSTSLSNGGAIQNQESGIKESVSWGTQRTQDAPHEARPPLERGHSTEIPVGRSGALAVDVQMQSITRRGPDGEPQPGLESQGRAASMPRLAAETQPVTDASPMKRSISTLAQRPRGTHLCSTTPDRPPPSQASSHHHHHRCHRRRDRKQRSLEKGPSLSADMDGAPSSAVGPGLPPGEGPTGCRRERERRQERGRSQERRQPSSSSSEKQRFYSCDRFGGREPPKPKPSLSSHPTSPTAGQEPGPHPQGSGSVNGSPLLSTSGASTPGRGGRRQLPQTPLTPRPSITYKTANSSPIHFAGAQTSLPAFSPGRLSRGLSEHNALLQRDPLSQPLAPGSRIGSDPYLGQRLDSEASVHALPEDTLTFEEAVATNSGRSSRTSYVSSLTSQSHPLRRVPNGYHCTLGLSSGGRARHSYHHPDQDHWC
T2 sequence (P54284 whole entry partner): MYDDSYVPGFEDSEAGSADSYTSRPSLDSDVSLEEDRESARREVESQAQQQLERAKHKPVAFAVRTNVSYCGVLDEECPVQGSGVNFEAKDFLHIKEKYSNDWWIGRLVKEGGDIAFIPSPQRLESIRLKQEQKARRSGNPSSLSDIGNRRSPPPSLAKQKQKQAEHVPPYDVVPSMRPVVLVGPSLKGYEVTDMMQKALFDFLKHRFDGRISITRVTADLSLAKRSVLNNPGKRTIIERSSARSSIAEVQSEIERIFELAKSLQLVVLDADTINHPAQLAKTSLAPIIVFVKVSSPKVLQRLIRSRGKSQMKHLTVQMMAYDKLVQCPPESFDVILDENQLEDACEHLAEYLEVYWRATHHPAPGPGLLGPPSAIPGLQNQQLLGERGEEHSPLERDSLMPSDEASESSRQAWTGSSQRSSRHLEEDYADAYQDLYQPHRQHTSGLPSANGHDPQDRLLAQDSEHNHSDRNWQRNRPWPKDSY
T2 sequence (P54289 25-956 partner limits assumed): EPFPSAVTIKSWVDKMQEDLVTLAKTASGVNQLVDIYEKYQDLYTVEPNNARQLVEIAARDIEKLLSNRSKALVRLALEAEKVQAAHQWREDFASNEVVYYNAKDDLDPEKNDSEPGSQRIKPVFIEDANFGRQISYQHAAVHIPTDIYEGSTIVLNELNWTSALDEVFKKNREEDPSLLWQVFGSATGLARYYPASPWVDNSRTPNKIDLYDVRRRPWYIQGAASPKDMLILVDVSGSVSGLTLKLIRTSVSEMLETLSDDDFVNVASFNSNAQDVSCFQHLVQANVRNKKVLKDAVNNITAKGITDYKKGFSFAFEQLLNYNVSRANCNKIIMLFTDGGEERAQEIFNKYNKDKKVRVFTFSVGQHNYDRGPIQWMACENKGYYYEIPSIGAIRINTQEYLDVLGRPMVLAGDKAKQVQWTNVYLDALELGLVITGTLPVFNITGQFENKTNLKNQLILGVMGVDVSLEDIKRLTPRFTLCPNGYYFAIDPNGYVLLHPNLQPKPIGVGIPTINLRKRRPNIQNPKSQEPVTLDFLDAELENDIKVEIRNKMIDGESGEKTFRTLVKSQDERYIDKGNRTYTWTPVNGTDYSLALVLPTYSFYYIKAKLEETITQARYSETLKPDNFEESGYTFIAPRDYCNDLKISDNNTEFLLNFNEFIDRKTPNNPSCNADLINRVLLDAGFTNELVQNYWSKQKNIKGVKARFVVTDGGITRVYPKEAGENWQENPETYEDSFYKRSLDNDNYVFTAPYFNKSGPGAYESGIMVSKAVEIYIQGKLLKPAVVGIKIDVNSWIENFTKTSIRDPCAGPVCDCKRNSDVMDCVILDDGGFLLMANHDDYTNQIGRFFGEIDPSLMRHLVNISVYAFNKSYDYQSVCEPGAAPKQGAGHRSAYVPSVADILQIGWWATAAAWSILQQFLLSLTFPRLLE
T2 sequence (P54289 957-1103 partner limits assumed): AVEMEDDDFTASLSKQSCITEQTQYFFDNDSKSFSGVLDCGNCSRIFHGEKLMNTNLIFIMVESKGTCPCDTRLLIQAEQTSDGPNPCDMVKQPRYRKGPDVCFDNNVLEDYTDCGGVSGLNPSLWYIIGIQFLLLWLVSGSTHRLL
T1 sequence (Q00975 whole entry): as the sequence (Q00975 whole entry) above
T1 sequence (P54284 whole entry partner): as the sequence (P54284 whole entry partner) above
T1 sequence (P54289 25-956 partner limits assumed): as the sequence (P54289 25-956 partner limits assumed) above
T1 sequence (P54289 957-1103 partner limits assumed): as the sequence (P54289 957-1103 partner limits assumed) above

| IC50 [1] [nM] | inhibition at 0.1 µM (N-type calcium channel; [2]) [%] | inhibition at 0.1 µM (N-type calcium channel; [3]) [%] | inhibition at 0.33 µM [1] [%] | inhibition at 1 µM (N-type calcium channel; [2]) [%] | inhibition at 1 µM (N-type calcium channel; [3]) [%] | SMILES |
| --- | --- | --- | --- | --- | --- | --- |
| 14 | 37 | 13 | 94 | – | – | CC(C)CS(=O)(=O)N1Cc2nn(-c3cccc4c3OCC4)c(-c3ccc(Cl)cc3)c2C1 [Cpd 85, 3-(4-Chlorophenyl)-2-(2,3-dihydro-1-benzofuran-7-yl)-5-[(2-methylpropyl)sulfonyl]-2,4,5,6-tetrahydropyrrolo[3,4-c]pyrazole] |
| 7 | 33 | 20 | 96 | – | – | CC1CCN(S(=O)(=O)N2Cc3nn(-c4cccc5c4OCC5)c(-c4ccc(Cl)cc4)c3C2)CC1 [Cpd 86, 3-(4-Chlorophenyl)-2-(2,3-dihydro-1-benzofuran-7-yl)-5-[(4-methylpiperidin-1-yl)sulfonyl]-2,4,5,6-tetrahydropyrrolo[3,4-c]pyrazole] |
| 17 | 49 | 31 | 89 | – | – | COc1ccccc1-n1nc2c(c1-c1ccc(Cl)cc1)CN(S(=O)(=O)c1c(C)noc1C)C2 [Cpd 87, 3-(4-Chlorophenyl)-5-[(3,5-dimethylisoxazol-4-yl)sulfonyl]-2-(2-methoxyphenyl)-2,4,5,6-tetrahydropyrrolo[3,4-c]pyrazole] |
| 5 | 47 | 26 | 96 | – | – | CC(C)S(=O)(=O)N1Cc2nn(-c3ccccc3N(C)C)c(-c3ccc(Cl)cc3)c2C1 [Cpd 88, 2-[3-(4-Chlorophenyl)-5-[(1-methylethyl)sulfonyl]-5,6-dihydropyrrolo[3,4-c]pyrazol-2(4H)-yl]-N,N-dimethylaniline] |
| 28 | 34 | 10 | 90 | – | – | CCS(=O)(=O)N1Cc2nn(-c3ccccc3N(C)C)c(-c3ccc(Cl)cc3)c2C1 [Cpd 89, 2-[3-(4-Chlorophenyl)-5-(ethylsulfonyl)-5,6-dihydropyrrolo[3,4-c]pyrazol-2(4H)-yl]-N,N-dimethylaniline] |
| 16 | 10 | 14 | 86 | – | – | COc1ccccc1-n1nc2c(c1-c1ccc(Cl)nc1)CN(S(=O)(=O)C(C)C)C2 [Cpd 92, 3-(6-Chloropyridin-3-yl)-2-(2-methoxyphenyl)-5-[(1-methylethyl)sulfonyl]-2,4,5,6-tetrahydropyrrolo[3,4-c]pyrazole] |
| 50 | 23 | -4 | 79 | – | – | CN(C)S(=O)(=O)N1Cc2nn(-c3ccccc3OCC(F)F)c(-c3ccc(Cl)cc3)c2C1 [Cpd 95, 3-(4-Chlorophenyl)-2-[2-(2,2-difluoroethoxy)phenyl]-N,N-dimethyl-2,6-dihydropyrrolo[3,4-c]pyrazole-5(4H)-sulfonamide] |

More lines, now with the values behind:

| SMILES | IC50 [1] [nM] | inhibition at 0.1 µM (N-type calcium channel; [2]) [%] | inhibition at 0.1 µM (N-type calcium channel; [3]) [%] | inhibition at 0.33 µM [1] [%] | inhibition at 1 µM (N-type calcium channel; [2]) [%] | inhibition at 1 µM (N-type calcium channel; [3]) [%] |
| --- | --- | --- | --- | --- | --- | --- |
| COc1ccccc1-n1nc2c(c1-c1ccc(Cl)cc1)CN(S(=O)(=O)N1CCCC1)C2 [Cpd 60, 3-(4-Chlorophenyl)-2-(2-methoxyphenyl)-5-(pyrrolidin-1-ylsulfonyl)-2,4,5,6-tetrahydropyrrolo[3,4-c]pyrazole] | 2 | 44 | 29 | – | – | – |
| COc1ccccc1-n1nc2c(c1-c1ccc(Cl)cc1)CN(S(=O)(=O)N1CCCCC1)C2 [Cpd 62, 3-(4-Chlorophenyl)-2-(2-methoxyphenyl)-5-(piperidin-1-ylsulfonyl)-2,4,5,6-tetrahydropyrrolo[3,4-c]pyrazole] | 4 | 45 | 20 | – | – | – |
| COc1cc(Cl)ccc1-n1nc2c(c1-c1ccc(Cl)cc1)CN(S(=O)(=O)C(C)C)C2 [Cpd 64, 2-(4-Chloro-2-methoxyphenyl)-3-(4-chlorophenyl)-5-[(1-methylethyl)sulfonyl]-2,4,5,6-tetrahydropyrrolo[3,4-c]pyrazole] | 33 | 24 | 12 | 86 | – | – |
| COc1cc(Cl)ccc1-n1nc2c(c1-c1ccc(Cl)cc1)CN(S(=O)(=O)N(C)C)C2 [Cpd 65, 2-(4-Chloro-2-methoxyphenyl)-3-(4-chlorophenyl)-N,N-dimethyl-2,6-dihydropyrrolo[3,4-c]pyrazole-5(4H)-sulfonamide] | 150 | 1 | -8 | 74 | – | – |
| COc1cc(F)ccc1-n1nc2c(c1-c1ccc(Cl)cc1)CN(S(=O)(=O)C(C)C)C2 [Cpd 71, 3-(4-Chlorophenyl)-2-(4-fluoro-2-methoxyphenyl)-5-[(1-methylethyl)sulfonyl]-2,4,5,6-tetrahydropyrrolo[3,4-c]pyrazole] | 21 | 1 | -30 | 91 | – | – |
| COc1cc(F)ccc1-n1nc2c(c1-c1ccc(Cl)cc1)CN(S(=O)(=O)N1CCC(C)CC1)C2 [Cpd 73, 3-(4-Chlorophenyl)-2-(4-fluoro-2-methoxyphenyl)-5-[(4-methylpiperidin-1-yl)sulfonyl]-2,4,5,6-tetrahydropyrrolo[3,4-c]pyrazole] | 24 | -28 | -34 | 93 | – | – |
| CCCC(C)S(=O)(=O)N1Cc2nn(-c3ccc(C)cc3OC)c(-c3ccc(Cl)cc3)c2C1 (stereo not drawn) [Cpd 76, 3-(4-Chlorophenyl)-2-(2-methoxy-4-methylphenyl)-5-[(1-methylbutyl)sulfonyl]-2,4,5,6-tetrahydropyrrolo[3,4-c]pyrazole] | 21 | – | – | 90 | 30 | -3 |
| CC(C)S(=O)(=O)N1Cc2nn(-c3cccc4c3OCO4)c(-c3ccc(Cl)cc3)c2C1 [Cpd 81, 2-(1,3-Benzodioxol-4-yl)-3-(4-chlorophenyl)-5-[(1-methylethyl)sulfonyl]-2,4,5,6-tetrahydropyrrolo[3,4-c]pyrazole] | 20 | – | -19 | 89 | – | – |
| CC(C)CS(=O)(=O)N1Cc2nn(-c3cccc4c3OCO4)c(-c3ccc(Cl)cc3)c2C1 [Cpd 82, 2-(1,3-Benzodioxol-4-yl)-3-(4-chlorophenyl)-5-[(2-methylpropyl)sulfonyl]-2,4,5,6-tetrahydropyrrolo[3,4-c]pyrazole] | 28 | 15 | 4 | 87 | – | – |
| CC1CCN(S(=O)(=O)N2Cc3nn(-c4cccc5c4OCO5)c(-c4ccc(Cl)cc4)c3C2)CC1 [Cpd 83, 2-(1,3-Benzodioxol-4-yl)-3-(4-chlorophenyl)-5-[(4-methylpiperidin-1-yl)sulfonyl]-2,4,5,6-tetrahydropyrrolo[3,4-c]pyrazole] | 20 | 27 | 12 | 92 | – | – |
| CC(C)S(=O)(=O)N1Cc2nn(-c3cccc4c3OCC4)c(-c3ccc(Cl)cc3)c2C1 [Cpd 84, 3-(4-Chlorophenyl)-2-(2,3-dihydro-1-benzofuran-7-yl)-5-[(1-methylethyl)sulfonyl]-2,4,5,6-tetrahydropyrrolo[3,4-c]pyrazole] | 10 | 7 | -3 | 94 | – | – |
